# From patent US9527832B2, “Substituted condensed pyrimidine compounds” (GRÜNENTHAL GMBH, priority 2013, dated 2016)
# Molecular target: T1, human PDE4B1 (Homo sapiens, UniProt Q07343)
# T1 construct: host or cells: Sf9 cells
# Assay: cAMP HTRF assay to determine the activity of hPDE4B1
# Format: biochemical
# Settings: for IC50: dose response measurements with eight concentrations, reported as ranges, read-out: IC50
# Summary of the method: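 Sf9-expressed recombinant human PDE4B1 (4.8 U) in Tris-HCl/MgCl2/DTT/Tween 20 buffer pH 7.8, with cAMP at 40 nM final, 30 min at room temperature. Reaction stopped with IBMX 1 mM; remaining cAMP detected by HTRF (665/620 nm ratio). IC50 from eight-point dose-response, n=2.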
# [1] = Percentage inhibition of PDE4B at 1 μM test concentration
# T1 sequence (Q07343 whole entry): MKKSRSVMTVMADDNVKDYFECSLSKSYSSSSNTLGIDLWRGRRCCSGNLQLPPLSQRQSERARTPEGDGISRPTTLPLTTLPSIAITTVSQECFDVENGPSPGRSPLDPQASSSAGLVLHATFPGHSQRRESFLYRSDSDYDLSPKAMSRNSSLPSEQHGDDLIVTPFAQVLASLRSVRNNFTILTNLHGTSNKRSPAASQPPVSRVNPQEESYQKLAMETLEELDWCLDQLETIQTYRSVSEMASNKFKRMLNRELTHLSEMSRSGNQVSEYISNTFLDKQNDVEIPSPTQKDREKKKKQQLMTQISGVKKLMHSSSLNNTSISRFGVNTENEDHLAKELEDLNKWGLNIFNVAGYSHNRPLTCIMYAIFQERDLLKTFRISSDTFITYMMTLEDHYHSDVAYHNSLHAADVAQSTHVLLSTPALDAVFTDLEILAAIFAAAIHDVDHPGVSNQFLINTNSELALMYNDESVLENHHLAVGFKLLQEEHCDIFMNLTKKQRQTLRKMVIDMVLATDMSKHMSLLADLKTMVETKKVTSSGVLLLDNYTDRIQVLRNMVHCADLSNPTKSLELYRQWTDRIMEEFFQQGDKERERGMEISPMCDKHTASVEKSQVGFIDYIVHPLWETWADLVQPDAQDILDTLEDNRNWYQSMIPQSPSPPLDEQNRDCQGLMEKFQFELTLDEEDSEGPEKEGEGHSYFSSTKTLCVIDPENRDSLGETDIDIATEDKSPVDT
SMILES,inhibition at 1 µM [1] [%],IC50 [nM],"inhibition at 0.1 µM (Percentage inhibition of PDE4B at 0.1 μM test concentration, read-out: Inhibition [%] (inh. at 0.1 μM))","Inhibition at 1 μM test concentration [%] (Percentage inhibition of PDE4B at 1 μM test concentration, 1 µM)"
"O=C(COc1ccc2c(c1)N(c1nc(-c3ccc(Cl)s3)nc3c1CS(=O)(=O)C3)CC2)NC1COC1 [Compound No. 2-60, 2-((1-(2-(5-Chlorothiophen-2-yl)-6,6-dioxido-5,7-dihydrothieno[3,4-d]pyrimidin-4-yl)indolin-6-yl)oxy)-N-(oxetan-3-yl)acetamide]",75,100 to 1000,,
"CNC(=O)COc1ccc2c(c1)N(c1nc(-c3ccc(Cl)s3)nc3c1CS(=O)(=O)C3)CC2 [Compound No. 2-58, 2-((1-(2-(5-Chlorothiophen-2-yl)-6,6-dioxido-5,7-dihydrothieno[3,4-d]pyrimidin-4-yl)indolin-6-yl)oxy)-N-methylacetamide]",70,100 to 1000,,
"O=C(O)Cc1ccc2c(cnn2-c2nc(-c3ccc(Cl)s3)nc3c2CCC3)c1 [Compound No. 1-61, 2-(1-(2-(5-Chlorothiophen-2-yl)-6,7-dihydro-5H-cyclopenta[d]-pyrimidin-4-yl)-1H-indazol-5-yl)acetic acid]",82,100 to 1000,,
"CN(C)C(=O)COc1ccc2c(c1)N(c1nc(-c3ccc(F)s3)nc3c1CS(=O)(=O)C3)CC2 [Compound No. 2-49, 2-((1-(2-(5-Fluorothiophen-2-yl)-6,6-dioxido-5,7-dihydrothieno[3,4-d]pyrimidin-4-yl)indolin-6-yl)oxy)-N,N-dimethylacetamide]",127,< 100,,
"Cc1ncc(-c2nc3c(c(N4CCc5ccc(OCC(=O)N(C)C)cc54)n2)C[S+]([O-])C3)s1 (centres unmarked) [Compound No. 2-140, N,N-Dimethyl-2-((1-(2-(2-methylthiazol-5-yl)-6-oxido-5,7-dihydrothieno[3,4-d]pyrimidin-4-yl)indolin-6-yl)oxy)acetamide]",95,< 100,,
"CCNC(=O)COc1ccc2c(c1)N(c1nc(-c3ccc(Cl)s3)nc3c1CS(=O)(=O)C3)CC2 [Compound No. 2-55, 2-((1-(2-(5-Chlorothiophen-2-yl)-6,6-dioxido-5,7-dihydrothieno[3,4-d]pyrimidin-4-yl)indolin-6-yl)oxy)-N-ethylacetamide]",52,,,
"CN(C)C(=O)COc1ccc2c(c1)N(c1nc(-c3ccc(C(N)=O)s3)nc3c1CS(=O)(=O)C3)CC2 [Compound No. 2-81, 5-(4-(6-(2-(Dimethylamino)-2-oxoethoxy)indolin-1-yl)-6,6-dioxido-5,7-dihydrothieno[3,4-d]pyrimidin-2-yl)thiophene-2-carboxamide]",,< 100,113,
"CN(C)C(=O)COc1ccc2c(c1)N(c1nc(-c3cccnc3)nc3c1CS(=O)(=O)C3)CC2 [Compound No. 2-136, 2-((1-(6,6-Dioxido-2-(pyridin-3-yl)-5,7-dihydrothieno[3,4-d]pyrimidin-4-yl)indolin-6-yl)oxy)-N,N-dimethylacetamide]",98,< 100,,
"O=C(O)c1ccc2c(ccn2-c2nc(-c3ccc(Cl)s3)nc3c2CCC3)c1 [Compound No. 1-70, 1-(2-(5-Chlorothiophen-2-yl)-6,7-dihydro-5H-cyclopenta[d]pyrimidin-4-yl)-1H-indole-5-carboxylic acid]",61,100 to 1000,,
"CC(C)NC(=O)COc1ccc2c(c1)N(c1nc(-c3ccc(Cl)s3)nc3c1CS(=O)(=O)C3)CC2 [Compound No. 2-54, 2-((1-(2-(5-Chlorothiophen-2-yl)-6,6-dioxido-5,7-dihydrothieno[3,4-d]pyrimidin-4-yl)indolin-6-yl)oxy)-N-isopropylacetamide]",54,100 to 1000,,
"COc1ccc(-c2nc3c(c(N4CCc5cc(CC(=O)O)ccc54)n2)CSC3)cc1Cl [Compound No. 1-5, 2-(1-(2-(3-Chloro-4-methoxyphenyl)-5,7-dihydrothieno[3,4-d]pyrimidin-4-yl)indolin-5-yl)acetic acid]",98,< 100,,
"O=C(O)Cc1ccc2c(c1)CCN2c1nc(-c2cncs2)nc2c1CCC2 [Compound No. 1-17, 2-(1-(2-(Thiazol-5-yl)-6,7-dihydro-5H-cyclopenta[d]pyrimidin-4-yl)indolin-5-yl)acetic acid]",83,100 to 1000,,
"COc1ccc(-c2nc3c(c(N4CCc5ccc(OCC(=O)N(C)C)cc54)n2)CS(=O)(=O)C3)cc1F [Compound No. 2-37, 2-((1-(2-(3-Fluoro-4-methoxyphenyl)-6,6-dioxido-5,7-dihydrothieno[3,4-d]pyrimidin-4-yl)indolin-6-yl)oxy)-N,N-dimethylacetamide]",96,< 100,,
"COc1ccc(-c2nc3c(c(N4CCc5ccc(OCC(=O)N(C)C)cc54)n2)CS(=N)(=O)C3)cc1F (centres unmarked) [Compound No. 2-115, 2-((1-(2-(3-Fluoro-4-methoxyphenyl)-6-imino-6-oxido-5,7-dihydrothieno[3,4-d]pyrimidin-4-yl)indolin-6-yl)oxy)-N,N-dimethylacetamide]",106,< 100,,
"NC(=O)COc1ccc2c(c1)N(c1nc(-c3ccc(Cl)s3)nc3c1CS(=O)(=O)C3)CC2 [Compound No. 2-59, 2-((1-(2-(5-Chlorothiophen-2-yl)-6,6-dioxido-5,7-dihydrothieno[3,4-d]pyrimidin-4-yl)indolin-6-yl)oxy)acetamide]",76,100 to 1000,,
"O=C(O)c1ccc2c(c1)CC(=O)N2c1nc(-c2ccc(Cl)s2)nc2c1CCC2 [Compound No. 1-69, 1-(2-(5-Chlorothiophen-2-yl)-6,7-dihydro-5H-cyclopenta[d]pyrimidin-4-yl)-2-oxoindoline-5-carboxylic acid]",61,100 to 1000,,
"COc1ccc(-c2nc3c(c(N4CCc5ccc(OCC(=O)N(C)C)cc54)n2)CS(=O)(=O)C3)cc1Cl [Compound No. 2-33, 2-((1-(2-(3-Chloro-4-methoxyphenyl)-6,6-dioxido-5,7-dihydrothieno[3,4-d]pyrimidin-4-yl)indolin-6-yl)oxy)-N,N-dimethylacetamide]",100,< 100,,

# The next lines start with the values.
inhibition at 1 µM [1] [%],IC50 [nM],"inhibition at 0.1 µM (Percentage inhibition of PDE4B at 0.1 μM test concentration, read-out: Inhibition [%] (inh. at 0.1 μM))","Inhibition at 1 μM test concentration [%] (Percentage inhibition of PDE4B at 1 μM test concentration, 1 µM)",SMILES
77,100 to 1000,,,"COc1ncccc1-c1nc2c(c(N3CCc4ccc(OCC(=O)N(C)C)cc43)n1)C[S+]([O-])C2 (centres unmarked) [2-105, 2-[[1-[2-(2-Methoxy-pyridin-3-yl)-6-oxo-5,7-dihydro-thieno[3,4-d]pyrimidin-4-yl]-2,3-dihydro-1H-indol-6-yl]oxy]-N,N-dimethyl-acetamide]"
117,< 100,,,"CN(C)C(=O)COc1ccc2c(c1)N(c1nc(-c3ccc(Cl)cc3)nc3c1C[S+]([O-])C3)CC2 (centres unmarked) [2-90, 2-[[1-[2-(4-Chlorophenyl)-6-oxo-5,7-dihydro-thieno[3,4-d]pyrimidin-4-yl]-2,3-dihydro-1H-indol-6-yl]oxy]-N,N-dimethyl-acetamide]"
98,< 100,,,"CC(=O)Nc1ccc(-c2nc3c(c(N4CCc5ccc(OCC(=O)N(C)C)cc54)n2)C[S+]([O-])C3)cc1 (centres unmarked) [2-109, 2-[[1-[2-(4-Acetylamino-phenyl)-6-oxo-5,7-dihydro-thieno[3,4-d]pyrimidin-4-yl]-2,3-dihydro-1H-indol-6-yl]oxy]-N,N-dimethyl-acetamide]"
88,< 100,,,"CN(C)C(=O)COc1ccc2c(c1)N(c1nc(-c3ccc4[nH]ccc4c3)nc3c1C[S+]([O-])C3)CC2 (centres unmarked) [2-152, 2-[[1-[2-(1H-Indol-5-yl)-6-oxo-5,7-dihydro-thieno[3,4-d]pyrimidin-4-yl]-2,3-dihydro-1H-indol-6-yl]oxy]-N,N-dimethyl-acetamide]"
121,< 100,,,"CN(C)C(=O)COc1ccc2c(c1)N(c1nc(-c3ccccc3)nc3c1C[S+]([O-])C3)CC2 (centres unmarked) [2-93, N,N-Dimethyl-2-[[1-(6-oxo-2-phenyl-5,7-dihydro-thieno[3,4-d]pyrimidin-4-yl)-2,3-dihydro-1H-indol-6-yl]oxy]-acetamide]"
97,< 100,,,"CN(C)C(=O)COc1ccc2c(c1)N(c1nc(-c3ccc4c(c3)CCO4)nc3c1C[S+]([O-])C3)CC2 (centres unmarked) [2-153, 2-[[1-[2-(2,3-Dihydro-benzofuran-5-yl)-6-oxo-5,7-dihydro-thieno[3,4-d]pyrimidin-4-yl]-2,3-dihydro-1H-indol-6-yl]oxy]-N,N-dimethyl-acetamide]"
100,< 100,,,"CN(C)C(=O)COc1ccc2c(c1)N(c1nc(-c3ccc4cnccc4c3)nc3c1C[S+]([O-])C3)CC2 (centres unmarked) [2-148, 2-[[1-(2-Isoquinolin-6-yl-6-oxo-5,7-dihydro-thieno[3,4-d]pyrimidin-4-yl)-2,-dihydro-1H-indol-6-yl]oxy]-N,N-dimethyl-acetamide]"
95,< 100,,,"CN(C)C(=O)COc1ccc2c(c1)N(c1nc(-c3ccc4c(c3)OCO4)nc3c1C[S+]([O-])C3)CC2 (centres unmarked) [2-145, 2-[[1-[2-(1,3-Benzodioxo1-5-yl)-6-oxo-5,7-dihydro-thieno[3,4-d]pyrimidin-4-yl]-2,3-dihydro-1H-indol-6-yl]oxy]-N,N-dimethyl-acetamide]"
64,100 to 1000,,,"COc1cc(F)ccc1-c1nc2c(c(N3CCc4ccc(OCC(=O)N(C)C)cc43)n1)C[S+]([O-])C2 (centres unmarked) [2-112, 2-[[1-[2-(4-Fluoro-2-methoxy-phenyl)-6-oxo-5,7-dihydro-thieno[3,4-d]pyrimidin-4-yl]-2,3-dihydro-1H-indol-6-yl]oxy]-N,N-dimethyl-acetamide]"
102,,,101,"CN(C)C(=O)COc1ccc2c(c1)N(c1nc(-c3ccnc(F)c3)nc3c1C[S+]([O-])C3)CC2 (centres unmarked) [2-138, 2-((1-(2-(2-Fluoropyridin-4-yl)-6-oxido-5,7-dihydrothieno[3,4-d]pyrimidin-4-yl)indolin-6-yl)oxy)-N,N-dimethylacetamide]"
